Laboratory results reported in patent US20230134760A1, “CAR AND NRF2 DUAL ACTIVATOR AGENTS FOR CYCLOPHOSPHAMIDE-BASED AND DOXORUBICIN-BASED TREATMENTS OF CANCER” (priority 2020, published 2023).

How the values were obtained:
H9c2 cells [1] = experiment: Oxidative stress imaging (DFDA) in H9c2 cells; type: cell-based, rat; details: H9c2, DL7076 5 μM, 2-hour pretreatment and 6-hour cotreatment with DOX
Method: H9c2 rat cardiomyocytes seeded at 0.8×10^5 in 24-well plates. […] Cells were washed 3× with PBS. Subsequently, 0.5 mL of WEM containing 20 μM 2'-7'-dichlorofluorescein diacetate (DFDA) was added to each well. The cells were incubated at 37° C. and 5% CO2 for 30 min. The oxidation of DFDA to the fluorescent dichlorofluorescein was viewed using fluorescence microscopy (Nikon Eclipse Ti) with a FITC filter at […] and quantified using Brightspot detection for fluorescent detection of triplicate images and normalized to the vehicle control (0.1% DMSO). Cells on coverslips from co-culture experiments were fixed using 4% paraformaldehyde and permealized using Triton-X 100. A primary antibody for mouse anti-phospho-H2AX ([…]) was incubated overnight. Goat anti-mouse IgG Fluor Alexa 488 (1:200) was incubated for 2 hrs. Phosphorylation was calculated through fluorescence intensity all normalized to the vehicle control.

HO-1 = HO-1 expression in human iPSC-derived cardiomyocytes; type: cell-based; details: human iPSC-derived cardiomyocytes, 1, 5, 10 μM
Method: Immortalized triple negative breast cancer cell lines MDA-MB-231 and BT549 were obtained from ATCC (Rockville, Md.). Additionally, the h9c2 cell line was purchased from ATCC (Rockville, Md.). […] Human iPSC-derived cardiomyocytes were maintained in Mtesr plus and supplemented according to protocol. These cells were treated for 2 hrs or an overnight as indicated. Following a 2 hr pretreatment, cells were co-treated with DOX at indicated concentrations for 6 or 22 hours. Following the overnight treatments, RNA or protein was isolated. HPH were seeded in collagen-coated 24 well plates and pretreated for 24 hrs. BT549 were seeded on inverted coverslips. After a 24 hr pretreatment, hepatocytes were co-administered as indicated and coverslips were inserted. The cell lines were used for less than 60 passages. After 24 h treatment, HPH, BT549, MDA-MB-231, and H9c2 cells were washed and a phenol-chloroform extraction was used to isolate total RNA with the TRIzol reagent (ThermoFisher, Rockford, Ill.). Reverse transcription was performed on extracted RNA (1 μg) to produce cDNA using the High Capacity cDNA Archive kit according to manufacturer's instructions (Applied Biosystems, Foster, Calif.). […] Quantification of expression changes was done by the 2^ΔΔCt method, normalizing to GAPDH as the housekeeping gene and determining the fold change compared to control values (n=3).

H9c2 cells [2] = experiment: Cell viability assay, DOX-induced toxicity in H9c2 cells; type: cell-based, rat
Method: H9c2 cells were seeded 0.8×10^5 in 24-well plates. Following cell attachment, a 2 h pre-treatment with vehicle control (0.1% DMSO), SFN (2.5 μM) or DL7076 (1 μM, 5 μM, or 10 μM) was done followed by doxorubicin (2.5 μM) exposure for 22 h. Co-culture cells were assembled and treated with cyclophosphamide and doxorubicin as indicated. A Cell Counting Kit-8 (Enzo) assay was carried out. Cell viability was described as a percent of vehicle control (0.1% DMSO). Cardiomyocyte, human iPSC-derived cardiomyocytes, and BT549 viability was determined with a 1 hr incubation of 6% CCK8 in WEM.

CYP2B6 = type: cell-based; details: human, hepatocytes
Method: HPH were obtained from BIOIVT (Baltimore, Md.) and seeded at 1.5×10^6 or 7.5×10^5 cells/well in 6- or 12-well collagen I-coated plates, while 24-well collagen I-coated plates were seeded at 3.75×10^5 cells/well as described previously. 24 hours after seeding, HPH were cultured cells were overlaid with 0.25 mg/mL Matrigel Corning, Corning, N.Y.) 24 h after seeding in serum-free William's E Medium (WEM) supplemented with ITS+(insulin, transferrin, and selenium, 100×; […] Millipore Sigma), 100 U/ml penicillin, and 100 μg/ml streptomycin (Pen-Strep; ThermoFisher Scientific, Waltham, Mass.), and 2 mM L-glutamine (Invitrogen, Carlsbad, Calif.). Overlaid HPH were treated with compounds in Complete WEM (CYP2B6 and CYP3A4 studies and coculture studies). After 24 h treatment, HPH, BT549, MDA-MB-231, and H9c2 cells were washed and a phenol-chloroform extraction was used to isolate total RNA with the TRIzol reagent (ThermoFisher, Rockford, Ill.). Reverse transcription was performed on extracted RNA (1 μg) to produce cDNA using the High Capacity cDNA Archive kit according to manufacturer's instructions (Applied Biosystems, Foster, Calif.). […] Quantification of expression changes was done by the 2^ΔΔCt method, normalizing to GAPDH as the housekeeping gene and determining the fold change compared to control values (n=3). […]

O=C(NCCN=C=S)c1c(-c2ccc3ccccc3c2)nc2sccn12 [DL7076, N-(2-Isothiocyanatoethyl)-6-(naphthalen-2-yl)imidazo[2,1-b]thiazole-5-carboxamide]
ROS (fluorescence intensity) with cotreatment (H9c2 cells [1]): significantly reduced ROS | HO-1 expression (HO-1): concentration-dependently induced | cytotoxicity without DOX (H9c2 cells [2]; H9c2, 1, 5, 10 μM): no cytotoxicity | reversal of DOX-induced cardiotoxicity (viability) (H9c2 cells [2]; H9c2, 2 h pretreatment, 22 h cotreatment with DOX 2.5 μM): concentration dependent reversal in the DOX-induced cardiotoxicity | CYP2B6 protein induction (CYP2B6): clear preferential induction of CYP2B6
